The structures appear in SMILES notation. Where two headings read alike, the source gives them in different places.

The target of one data set is urease (Canavalia ensiformis, UniProt P07374). Nature of the data set: biochemical. In kind it is biochemical. Here is the method: Figure S6. High resolution Proton NMR Spectrum of 3-chloro-N'- undecanoylbenzenesulfonohydrazide (4.13).
4.16. Urease Assay Protocol
The reaction mixtures, which included […] of enzyme solution and […] of buffers containing 100 mM urea, were incubated in 96-well plates at 30 °C for 15 min with […] of the test compounds (0.5 mM concentration). The urea concentrations were adjusted from 2 -24 mM for the kinetics evaluation. By quantifying ammonia production with Weatherburn's indophenol technique, urease activity was determined.. To each well, 45 μL of the phenol reagent (1% w/v phenol and 0.005% w/v sodium nitroprusside) and 70 μL of the alkali reagent (0.5% w/v NaOH and 0.1% active chloride NaOCl) were added. Using a microplate reader, the rising absorbance at 630 nm was observed after 50 minutes (Molecular Device, USA). In a final volume of […], each reaction was carried out three times. Using the software SoftMaxPro, the results (change in absorbance per minute) were processed (molecular Device, USA). The experiments were run at pH 6.8 throughout. The formula 100-(ODtest well/ODcontrol) 100 was […]
used to calculate the percentage of inhibition. Thiourea was used as the standard inhibitor for […]
4.17. α-Glucosidase Inhibitory Assay Protocol […]
phosphate buffer (pH=6.8), were incubated at 37°C for 15 min in a 96-well plate. 20 µl of p-nitrophenyl—D-glucopyranoside solution was further added as a substrate and again incubated for 20 min at 37 °C. Sodium carbonate (50 µl of 0.1M) was added to terminate the reaction. P-nitrophenol was liberated, during the reaction which was measured at 405n m u sing an ELISA […]
conditions by omitting test samples. All the experiments were carried out in triplicates. The percentage inhibition was calculated by the formula.
% Inhibition = [(Ac – As) /Ac] × 100 Ac-absorbance for control, As-absorbance for standard.
4.18. Molecular Docking Assay
In this study the synthesized compounds were analyzed against α-amylase and α-glucosidase enzyme. […]

A further data set has as its system Alternaria alternate. Nature of the data set: Anti-fungal activity. The class given is cell-based. As to conditions: against Alternaria alternate, standard drug Terinafine.
Setting [1] is: read-out: Anti-Urease IC50 (µM ± SEM).

Sequence of urease (P07374 whole entry, looked up): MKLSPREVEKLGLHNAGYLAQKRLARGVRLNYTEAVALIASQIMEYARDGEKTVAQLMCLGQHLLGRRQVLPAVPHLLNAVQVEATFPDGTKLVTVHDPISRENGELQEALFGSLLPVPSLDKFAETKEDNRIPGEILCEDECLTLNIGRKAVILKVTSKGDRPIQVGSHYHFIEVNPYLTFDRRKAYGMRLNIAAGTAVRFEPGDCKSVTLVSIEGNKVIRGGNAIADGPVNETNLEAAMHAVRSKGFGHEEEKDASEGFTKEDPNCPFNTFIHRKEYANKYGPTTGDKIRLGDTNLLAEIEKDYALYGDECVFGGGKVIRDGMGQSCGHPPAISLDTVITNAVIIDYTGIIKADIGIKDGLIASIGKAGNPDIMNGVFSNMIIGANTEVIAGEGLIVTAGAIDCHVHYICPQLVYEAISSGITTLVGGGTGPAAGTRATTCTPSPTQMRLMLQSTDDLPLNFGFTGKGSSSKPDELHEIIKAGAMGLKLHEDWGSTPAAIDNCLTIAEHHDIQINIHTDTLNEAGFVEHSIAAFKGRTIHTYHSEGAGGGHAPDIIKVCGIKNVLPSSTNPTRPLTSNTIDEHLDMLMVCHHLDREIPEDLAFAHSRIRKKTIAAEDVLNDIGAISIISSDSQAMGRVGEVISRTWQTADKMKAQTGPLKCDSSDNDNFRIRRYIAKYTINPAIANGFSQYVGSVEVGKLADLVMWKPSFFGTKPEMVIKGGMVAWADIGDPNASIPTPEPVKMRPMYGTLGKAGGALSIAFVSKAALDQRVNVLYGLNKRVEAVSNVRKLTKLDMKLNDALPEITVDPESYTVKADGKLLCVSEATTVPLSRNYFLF

By IC50 is commonly meant the concentration at which inhibition is half-maximal. `CCCCC(=O)NNS(=O)(=O)c1ccc(F)cc1[N+](=O)[O-]` [Analog 5] showed an IC50 against urease of 2.1 ± 0.1 µM. In addition, in the data set with Alternaria alternate, the anti-fungal activity result is given as “exhibited anti-fungal profiles”.

Usually melting point stands for the temperature, or range, at which the solid turns liquid. Consider `CCCCCCCCCCC(=O)NNS(=O)(=O)c1cccc(Cl)c1` [Analog 13, 3-chloro-N'-undecanoylbenzenesulfonohydrazide], for which the melting point lay in the range of 168 to 169 °C. Moreover, the IC50 at urease (setting [1]) is 18.4 ± 0.3 µM. `NC(N)=S` [thiourea, reference compound]: the IC50 on urease (setting [1]) amounted to 7.8 µM.

(Values after paper PMC9609496, “Synthesis, In Vitro Anti-Microbial Analysis and Molecular Docking Study of Aliphatic Hydrazide-Based Benzene Sulphonamide Derivatives as Potent Inhibitors of α-Glucosidase and Urease” (Molecules, 2022).)
